# Laboratory results taken from PMC6218659, “Structures of DPAGT1 Explain Glycosylation Disease Mechanisms and Advance TB Antibiotic Design” (Cell, 2018).
# Changes are numbered by the printed parent chain. In names and notes the source's numbering stands.
# T1: DPAGT1 Leu168Pro (Homo sapiens, UniProt Q9H3H5, L168P)
# T1 construct: combined with the LIC-adapted primers to amplify the complete DPAGT1 gene, including the desired mutations; 6xHis purification tag with TEV site (N, cleaved yes); made in house; host or cells: Spodoptera frugiperda Sf9 insect cells (baculovirus)
# T1 sequence (Q9H3H5 1-408 L168P): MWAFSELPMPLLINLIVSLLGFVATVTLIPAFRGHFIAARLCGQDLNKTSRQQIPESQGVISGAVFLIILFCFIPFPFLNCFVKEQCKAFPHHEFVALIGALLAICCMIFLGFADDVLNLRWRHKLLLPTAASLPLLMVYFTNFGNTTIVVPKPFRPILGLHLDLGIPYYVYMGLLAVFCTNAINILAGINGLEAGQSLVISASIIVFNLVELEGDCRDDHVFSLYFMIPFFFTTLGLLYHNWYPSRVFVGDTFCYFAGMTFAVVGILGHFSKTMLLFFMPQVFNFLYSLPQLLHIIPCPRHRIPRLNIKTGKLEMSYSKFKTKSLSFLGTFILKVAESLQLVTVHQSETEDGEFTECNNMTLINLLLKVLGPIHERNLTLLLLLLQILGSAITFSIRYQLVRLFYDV
# T2: DPAGT1 Val264Gly (Homo sapiens, UniProt Q9H3H5, V264G)
# T2 construct: H. sapiens DPAGT1 (1-408, Val264Gly, N-terminal 6 x HIS tag, TEV cleavage site); 6xHis purification tag with TEV site (N, cleaved yes); made in house; host or cells: Spodoptera frugiperda Sf9 insect cells (baculovirus)
# T2 sequence (Q9H3H5 1-408 V264G): T1 sequence (Q9H3H5 1-408 L168P) with P168L, V264G
# T3: DPAGT1 Tyr170Cys (Homo sapiens, UniProt Q9H3H5, Y170C)
# T3 construct: combined with the LIC-adapted primers to amplify the complete DPAGT1 gene, including the desired mutations; 6xHis purification tag with TEV site (N, cleaved yes); made in house; host or cells: Spodoptera frugiperda Sf9 insect cells (baculovirus)
# T3 sequence (Q9H3H5 1-408 Y170C): T1 sequence (Q9H3H5 1-408 L168P) with P168L, Y170C
# T4: DPAGT1 Arg301His (Homo sapiens, UniProt Q9H3H5, R301H)
# T4 construct: combined with the LIC-adapted primers to amplify the complete DPAGT1 gene, including the desired mutations; 6xHis purification tag with TEV site (N, cleaved yes); made in house; host or cells: Spodoptera frugiperda Sf9 insect cells (baculovirus)
# T4 sequence (Q9H3H5 1-408 R301H): T1 sequence (Q9H3H5 1-408 L168P) with P168L, R301H
# T5: DPAGT1 WT (Homo sapiens, UniProt Q9H3H5)
# T5 construct: H. sapiens DPAGT1 (1-408, N-terminal 6 x HIS tag, TEV cleavage site); 6xHis purification tag with TEV site (N, cleaved yes); made in house; host or cells: Spodoptera frugiperda Sf9 insect cells (baculovirus)
# T5 sequence (Q9H3H5 1-408): T1 sequence (Q9H3H5 1-408 L168P) with P168L
# T6: DPAGT1 Arg301Cys (Homo sapiens, UniProt Q9H3H5, R301C)
# T6 construct: combined with the LIC-adapted primers to amplify the complete DPAGT1 gene, including the desired mutations; 6xHis purification tag with TEV site (N, cleaved yes); made in house; host or cells: Spodoptera frugiperda Sf9 insect cells (baculovirus)
# T6 sequence (Q9H3H5 1-408 R301C): T1 sequence (Q9H3H5 1-408 L168P) with P168L, R301C
# T7: DPAGT1 (Homo sapiens, UniProt Q9H3H5)
# T7 construct: H. sapiens DPAGT1 (1-408, N-terminal 6 x HIS tag, TEV cleavage site); 6xHis purification tag with TEV site (N, cleaved yes); made in house; host or cells: Spodoptera frugiperda Sf9 insect cells (baculovirus)
# T7 sequence (Q9H3H5 1-408): T1 sequence (Q9H3H5 1-408 L168P) with P168L
# B1: H. sapiens DPAGT1 (1-408, Val264Gly, N-terminal 6 x HIS tag, TEV cleavage site) (enzyme, human, UniProt Q9H3H5 1-408, looked up)
# chain: T1 sequence (Q9H3H5 1-408 L168P) with P168L, V264G
# notes: human DPAGT1, residues 1-408, full length, with the missense variant Val264Gly found in some congenital myasthenic syndrome patients; After TEV cleavage an additional N-terminal serine remains (measured mass 46135 Da); Used for the apo, UDP-GlcNAc and tunicamycin crystal structures; also called Val264Gly DPAGT1; V264G variant; source: Sf9 insect cells (baculovirus), purified (OGNG/CHS extraction, …)
# B2: H. sapiens DPAGT1 (1-408, N-terminal 6 x HIS tag, TEV cleavage site), wild type (enzyme, human, UniProt Q9H3H5 1-408, looked up)
# chain: T1 sequence (Q9H3H5 1-408 L168P) with P168L
# notes: human dolichyl-phosphate N-acetylglucosamine-phosphotransferase DPAGT1 (E.C. 2.7.8.15), residues 1-408, full-length wild type; After TEV cleavage an additional N-terminal serine remains (measured mass 46177 Da); Integral membrane protein kept in OGNG/CHS/cardiolipin (or DOPG) detergent-lipid buffer; also called WT DPAGT1; GPT; source: Sf9 insect cells (baculovirus), purified (OGNG/CHS extraction, …)
# Tests used:
# [1] = molecular target: T1, DPAGT1 Leu168Pro; experiment: Thermostability assay (label free differential scanning fluorimetry); assay type: binding, H. sapiens; conditions: 50 μM compound
# Experimental: (§1) Samples with a volume of 40 μl were prepared containing 0.5 mg/ml protein and 50 μM compound or 5% DMSO in GFB. A glass capillary was dipped into each sample, with the capillary held horizontally to ensure that the capillary was full of the sample. The capillaries were placed on the capillary holder on the Nanotemper Prometheus. Technical triplicates of each sample were prepared, and each experiment was conducted with biological triplicates of each protein. PR.ThermControl software was used to run the experiment and analyse the data. A melting curve from 20 °C – 95 °C at 5 °C/min was performed. The minimum of the first derivative of the 330/350nm ratio was used to determine the Tm1/2.
# [2] = molecular target: T2, DPAGT1 Val264Gly; experiment: as above; assay type: binding, H. sapiens; conditions: 50 μM compound
# Experimental: as §1
# [3] = molecular target: T3, DPAGT1 Tyr170Cys; experiment: as above; assay type: binding, H. sapiens; conditions: 50 μM compound
# Experimental: as §1
# [4] = molecular target: T4, DPAGT1 Arg301His; experiment: as above; assay type: binding, H. sapiens; conditions: 50 μM compound
# Experimental: as §1
# [5] = molecular target: T5, DPAGT1 WT; experiment: as above; assay type: binding, H. sapiens; conditions: 50 μM compound
# Experimental: as §1
# [6] = molecular target: T6, DPAGT1 Arg301Cys; experiment: as above; assay type: binding, H. sapiens; conditions: 50 μM compound
# Experimental: as §1
# [7] = molecular target: T7, DPAGT1; experiment: Radiolabeled substrate enzyme activity assay; assay type: biochemical, H. sapiens
# Experimental: 2 μl of 2 μM DPAGT1 WT or mutant proteins in GFB buffer supplemented with 5mM extra MgCl2, 1% OGNG/CHS/cardiolipin and dolichyl monophosphate was combined with 2 μl of UDP-N-acetyl [1-14C] […] The reaction was terminated by the addition of 6 μl of 100% methanol and immediately transferred onto ice. 1 μl of sample was spotted onto a silica coated TLC plate in triplicate and run with a mobile phase consisting of chloroform, methanol, and water at a 65:25:4 ratio respectively. After the run, the TLC plate was dried thoroughly, wrapped in cling film, incubated with a phosphor imaging substrate for 4 days, then phosphor imaged using a Biorad. The pixel density of the spots corresponding to the hydrophobic product was divided by combined pixel density of the product and the substrate and multiplied by the known concentration of substrate added to ascertain the amount of product formed.
# [8] = molecular target: the molecule itself; experiment: crystal structure; space group P6(5)22, one DPAGT1 monomer in the asymmetric unit; dimer formed through a crystallographic 2-fold axis; apo WT, apo Val264Gly and Val264Gly complexes with UDP-GlcNAc/Mg2+ or tunicamycin
# [9] = molecular target: the molecule itself; experiment: native MS; purified DPAGT1 diluted to 10 uM, buffer exchanged into 200 mM ammonium acetate, 0.16% OGNG; Q Exactive modified for high-mass transmission, positive ion mode
Molecule,Thermostability (Tm1/2) with added compound [1] [°C],Thermostability (Tm1/2) with added compound [2] [°C],Thermostability (Tm1/2) with added compound [3] [°C],Thermostability (Tm1/2) with added compound [4] [°C],Thermostability (Tm1/2) with added compound [5] [°C],Thermostability (Tm1/2) with added compound [6] [°C],effect of adding product on DPAGT1 activity ([7]; product inhibition test),"kcat ([7]; WT DPAGT1, non-titrated substrate at 200 μM) [s⁻¹]","Km ([7]; WT DPAGT1, non-titrated substrate at 200 μM, read-out: apparent Km) [µM]",binding result [8],stoichiometry N [9]
"CC(=O)NC1C(OP(=O)(O)OP(=O)(O)OCC2OC(n3ccc(=O)[nH]c3=O)C(O)C2O)OC(CO)C(O)C1O (centres unmarked) [UDP-GlcNAc, UDP-N-acetyl glucosamine]",53.8±1.1,54.6±0.4,54.0±0.8,52.4±1.0,55.1±0.4,52.5±0.6,,,,,
O=c1ccn([C@@H]2O[C@H](COP(=O)(O)O)[C@@H](O)[C@H]2O)c(=O)[nH]1 [UMP],50.4±0.6,50.5±0.2,50.7±0.3,51.4±0.9,51.7±0.2,51.4±0.8,no effect,,,,
dolichyl phosphate [Dol-P],52.5±0.3,57.2±0.2,54.0±1.0,56.2±1.2,58.5,56.4±0.5,,0.00333 ± 0.0002,36.3 ± 7.2,,
B1,,,,,,,,,,binds,
B2,,,,,,,,,,,2
